{
  "source": "paper PMC8489232",
  "about": "“Structural and catalytic characterization of Blastochloris viridis and Pseudomonas aeruginosa homospermidine synthases supports the essential role of cation–π interaction” (Acta Crystallographica. Section D, Structural Biology, 2021)",
  "molecules": {"B1": {"name": "Blastochloris viridis homospermidine synthase, wild type (enzyme)", "chain": "MTDWPVYHRIDGPIVMIGFGSIGRGTLPLIERHFAFDRSKLVVIDPSDEARKLAEARGVRFIQQAVTRDNYRELLVPLLTAGPGQGFCVNLSVDTSSLDIMELARENGALYIDTVVEPWLGFYFDPDLKPEARSNYALRETVLAARRNKPGGTTAVSCCGANPGMVSWFVKQALVNLAADLGVTGEEPTTREEWARLAMDLGVKGIHIAERDTQRASFPKPFDVFVNTWSVEGFVSEGLQPAELGWGTFERWMPDNARGHDSGCGAGIYLLQPGANTRVRSWTPTAMAQYGFLVTHNESISIADFLTVRDAAGQAVYRPTCHYAYHPCNDAVLSLHEMFGSGKRQSDWRILDETEIVDGIDELGVLLYGHGKNAYWYGSQLSIEETRRIAPDQNATGLQVSSAVLAGMVWALENPNAGIVEADDLDFRRCLEVQTPYLGPVVGVYTDWTPLAGRPGLFPEDIDTSDPWQFRNVLVRD", "notes": "also called BvHSS; wild-type BvHSS; source: E. coli BL21(DE3) Gold, purified (as described previously, Krossa et al., 2016)"}, "B2": {"name": "Blastochloris viridis homospermidine synthase variant E117Q (enzyme)", "chain": "B1 chain with E117Q", "notes": "homospermidine synthase of Blastochloris viridis, UniProtKB O32323, single-residue variant made by site-directed mutagenesis of BvHSS pETM-14; Same construct as m2 with one substitution; also called BvHSS (E117Q); BvHSS E117Q; source: E. coli BL21(DE3) Gold, purified (as described previously, Krossa et al., 2016)"}, "B3": {"name": "Blastochloris viridis homospermidine synthase variant E210Q (enzyme)", "chain": "B1 chain with E210Q", "notes": "homospermidine synthase of Blastochloris viridis, UniProtKB O32323, single-residue variant made by site-directed mutagenesis of BvHSS pETM-14; Same construct as m2 with one substitution; also called BvHSS (E210Q); BvHSS E210Q; source: E. coli BL21(DE3) Gold, purified (as described previously, Krossa et al., 2016)"}, "B4": {"name": "Blastochloris viridis homospermidine synthase variant E210A (enzyme)", "chain": "B1 chain with E210A", "notes": "homospermidine synthase of Blastochloris viridis, UniProtKB O32323, single-residue variant made by site-directed mutagenesis of BvHSS pETM-14; Same construct as m2 with one substitution; also called BvHSS (E210A); BvHSS E210A; source: E. coli BL21(DE3) Gold, purified (as described previously, Krossa et al., 2016)"}, "B5": {"name": "Blastochloris viridis homospermidine synthase variant W229A (enzyme)", "chain": "B1 chain with W229A", "notes": "homospermidine synthase of Blastochloris viridis, UniProtKB O32323, single-residue variant made by site-directed mutagenesis of BvHSS pETM-14; Same construct as m2 with one substitution; also called BvHSS (W229A); BvHSS W229A; source: E. coli BL21(DE3) Gold, purified (as described previously, Krossa et al., 2016)"}, "B6": {"name": "Blastochloris viridis homospermidine synthase variant W229F (enzyme)", "chain": "B1 chain with W229F", "notes": "homospermidine synthase of Blastochloris viridis, UniProtKB O32323, single-residue variant made by site-directed mutagenesis of BvHSS pETM-14; Same construct as m2 with one substitution; also called BvHSS (W229F); BvHSS W229F; source: E. coli BL21(DE3) Gold, purified (as described previously, Krossa et al., 2016)"}, "B7": {"name": "Blastochloris viridis homospermidine synthase variant W229E (enzyme)", "chain": "B1 chain with W229E", "notes": "homospermidine synthase of Blastochloris viridis, UniProtKB O32323, single-residue variant made by site-directed mutagenesis of BvHSS pETM-14; Same construct as m2 with one substitution; also called BvHSS (W229E); BvHSS W229E; source: E. coli BL21(DE3) Gold, purified (as described previously, Krossa et al., 2016)"}},
  "key": {"BvHSS [1]": {"molecular_target": "T1, BvHSS (Blastochloris viridis, UniProt O32323, E117Q)", "T1 construct": "gene hss; full length in pETM-14, E. coli BL21(DE3) Gold; dimer, 106 kDa theoretical", "T1 sequence (O32323 whole entry E117Q)": "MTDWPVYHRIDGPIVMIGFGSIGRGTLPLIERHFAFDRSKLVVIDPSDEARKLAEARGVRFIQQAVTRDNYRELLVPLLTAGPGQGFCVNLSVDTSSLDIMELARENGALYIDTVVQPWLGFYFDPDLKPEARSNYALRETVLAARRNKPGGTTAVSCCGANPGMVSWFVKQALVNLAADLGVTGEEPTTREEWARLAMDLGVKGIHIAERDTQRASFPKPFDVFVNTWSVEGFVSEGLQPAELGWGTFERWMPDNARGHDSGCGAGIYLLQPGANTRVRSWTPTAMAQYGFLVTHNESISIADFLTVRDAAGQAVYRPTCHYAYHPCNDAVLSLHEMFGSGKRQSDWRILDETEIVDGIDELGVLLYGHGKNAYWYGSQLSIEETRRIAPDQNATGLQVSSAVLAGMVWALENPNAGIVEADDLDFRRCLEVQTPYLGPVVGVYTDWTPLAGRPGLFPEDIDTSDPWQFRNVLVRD", "experiment": "X-ray crystal structure, […] A", "assay_type": "binding", "conditions": "1.3 mM NAD+ in protein solution; both subunits; two ribose conformers"}, "BvHSS [2]": {"molecular_target": "T2, BvHSS (Blastochloris viridis, UniProt O32323, W229F)", "T2 construct": "gene hss; full length in pETM-14, E. coli BL21(DE3) Gold; dimer, 106 kDa theoretical", "T2 sequence (O32323 whole entry W229F)": "as the sequence (O32323 whole entry E117Q) above, with Q117E, W229F counted along it", "experiment": "X-ray crystal structure, […] A", "assay_type": "binding", "conditions": "1.3 mM NAD+ in protein solution; both subunits; PUT soak, no PUT modelled"}, "BvHSS [3]": {"molecular_target": "T3, BvHSS (Blastochloris viridis, UniProt O32323, E210Q)", "T3 construct": "gene hss; full length in pETM-14, E. coli BL21(DE3) Gold; dimer, 106 kDa theoretical", "T3 sequence (O32323 whole entry E210Q)": "as the sequence (O32323 whole entry E117Q) above, with Q117E, E210Q counted along it", "experiment": "X-ray crystal structure, […] A", "assay_type": "binding", "conditions": "1.3 mM NAD+ in protein solution; both subunits"}, "PaHSS": {"molecular_target": "T4, PaHSS (Pseudomonas aeruginosa, UniProt Q6X2Y9)", "T4 construct": "gene CL-17; full length, codon-optimized synthetic gene in pETM-14, E. coli BL21(DE3) Gold; N-terminal 6xHis tag removed with HRV3C protease; 52 kDa monomer in solution (SEC-MALS); crystalline dimers", "T4 sequence (Q6X2Y9 1-469)": "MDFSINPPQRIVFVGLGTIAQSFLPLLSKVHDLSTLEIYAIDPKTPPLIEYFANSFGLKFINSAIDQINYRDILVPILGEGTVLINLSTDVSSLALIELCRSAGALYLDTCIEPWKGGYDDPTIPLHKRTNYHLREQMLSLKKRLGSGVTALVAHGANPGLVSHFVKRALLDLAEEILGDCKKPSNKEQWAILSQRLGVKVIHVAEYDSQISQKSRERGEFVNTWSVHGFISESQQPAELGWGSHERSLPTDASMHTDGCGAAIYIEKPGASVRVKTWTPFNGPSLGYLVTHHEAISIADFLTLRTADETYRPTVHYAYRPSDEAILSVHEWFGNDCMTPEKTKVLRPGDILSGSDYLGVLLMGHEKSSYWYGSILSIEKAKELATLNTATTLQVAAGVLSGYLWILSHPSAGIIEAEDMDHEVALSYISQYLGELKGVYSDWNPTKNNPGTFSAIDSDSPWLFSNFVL", "experiment": "X-ray crystal structure, […] A", "assay_type": "binding"}, "BvHSS [4]": {"molecular_target": "T5, BvHSS (Blastochloris viridis, UniProt O32323, W229A)", "T5 construct": "gene hss; full length in pETM-14, E. coli BL21(DE3) Gold; dimer, 106 kDa theoretical", "T5 sequence (O32323 whole entry W229A)": "as the sequence (O32323 whole entry E117Q) above, with Q117E, W229A counted along it", "experiment": "X-ray crystal structure, […] A", "assay_type": "binding", "conditions": "1.3 mM NAD+ in protein solution; both subunits; PUT soak"}, "BvHSS [5]": {"molecular_target": "T6, BvHSS (Blastochloris viridis, UniProt O32323, E210A)", "T6 construct": "gene hss; full length in pETM-14, E. coli BL21(DE3) Gold; dimer, 106 kDa theoretical", "T6 sequence (O32323 whole entry E210A)": "as the sequence (O32323 whole entry E117Q) above, with Q117E, E210A counted along it", "experiment": "X-ray crystal structure, […] A", "assay_type": "binding", "conditions": "1.3 mM NAD+ in protein solution; both subunits"}, "BvHSS [6]": {"molecular_target": "T7, BvHSS (Blastochloris viridis, UniProt O32323, W229E)", "T7 construct": "gene hss; full length in pETM-14, E. coli BL21(DE3) Gold; dimer, 106 kDa theoretical", "T7 sequence (O32323 whole entry W229E)": "as the sequence (O32323 whole entry E117Q) above, with Q117E, W229E counted along it", "experiment": "X-ray crystal structure, […] A", "assay_type": "binding", "conditions": "1.3 mM NAD+ in protein solution; both subunits; PUT soak, no PUT modelled"}, "[7]": {"molecular_target": "the molecule itself", "experiment": "SEC-MALS; HPLC-MALS of the purified proteins in solution; data not shown; method in Supplementary Section S1"}, "[8]": {"molecular_target": "the molecule itself", "experiment": "crystal structure; BvHSS variants, hanging-drop vapor diffusion at 291 K, sodium acetate pH 4.6-4.8, PEG 10 000, with NAD+ and agmatine sulfate; space group P22(1)2(1), two molecules in the asymmetric unit"}},
  "note": "Numbering of substitutions follows the chain as printed. In names and notes the source's numbering stands.",
  "data": [
    {"molecule": "NC(=O)c1ccc[n+]([C@@H]2O[C@H](COP(=O)(O)OP(=O)(O)OC[C@H]3O[C@@H](n4cnc5c(N)ncnc54)[C@H](O)[C@@H]3O)[C@@H](O)[C@H]2O)c1", "note": "[NAD^+, nicotinamide adenine dinucleotide]", "values": [
      {"measurement": "X-ray crystal structure, 1.77 A", "setting": "BvHSS [1]", "value": "with each subunit containing an NAD^+ molecule in the binding pocket"},
      {"measurement": "X-ray crystal structure, 2.08 A", "setting": "BvHSS [2]", "value": "with each subunit containing an NAD^+ molecule in the binding pocket"},
      {"measurement": "X-ray crystal structure, 1.93 A", "setting": "BvHSS [3]", "value": "with each subunit containing an NAD^+ molecule in the binding pocket"},
      {"measurement": "X-ray crystal structure, 2.42 A", "setting": "PaHSS; 1.3 mM NAD+ in protein solution, all six chains", "value": "All six PaHSS molecules contain an NAD^+ molecule in their binding pockets"},
      {"measurement": "X-ray crystal structure, 2.00 A", "setting": "BvHSS [4]", "value": "with each subunit containing an NAD^+ molecule in the binding pocket"},
      {"measurement": "X-ray crystal structure, 1.75 A", "setting": "BvHSS [5]", "value": "with each subunit containing an NAD^+ molecule in the binding pocket"},
      {"measurement": "X-ray crystal structure, 2.76 A", "setting": "BvHSS [6]", "value": "with each subunit containing an NAD^+ molecule in the binding pocket"}
    ]},
    {"molecule": "NCCCCN", "note": "[PUT, 1,4-diaminobutane]", "values": [
      {"measurement": "X-ray crystal structure, 2.42 A", "setting": "PaHSS; PUT not added, assumed co-purified from E. coli, active site of chains A, C and E, NAD+ present", "value": "molecules A, C and E additionally contain a PUT molecule in the active site"}
    ]},
    {"molecule": "B1", "values": [
      {"measurement": "stoichiometry N", "setting": "[7]", "value": 2}
    ]},
    {"molecule": "B2", "values": [
      {"measurement": "binding result", "setting": "[8]", "value": "binds"}
    ]},
    {"molecule": "B3", "values": [
      {"measurement": "binding result", "setting": "[8]", "value": "binds"}
    ]},
    {"molecule": "B4", "values": [
      {"measurement": "binding result", "setting": "[8]", "value": "binds"}
    ]},
    {"molecule": "B5", "values": [
      {"measurement": "binding result", "setting": "[8]", "value": "binds"}
    ]},
    {"molecule": "B6", "values": [
      {"measurement": "binding result", "setting": "[8]", "value": "binds"}
    ]},
    {"molecule": "B7", "values": [
      {"measurement": "binding result", "setting": "[8]", "value": "binds"}
    ]}
  ]
}
